Measured values as given in ChEMBL document CHEMBL1123199, “Synthesis and structure-activity relationships of naftifine-related allylamine antimycotics” (1986).
≈ marks a conversion by molar mass, not a printed value.

Assays:
Aspergillus fumigatus = assay: Antifungal activity measured against Aspergillus fumigatus; format: functional
Candida parapsilosis [1] = assay: Antifungal activity against Candida parapsilosis.; format: functional; conditions: Lodderomyces parapsilosis
Epidermophyton floccosum = assay: Antifungal activity against Epidermophyton floccosum.; format: functional
Microsporum canis = assay: Antifungal activity against Microsporum canis; format: functional
Sporothrix schenckii = assay: Antifungal activity measured against Sporothrix schenck ii.; format: functional
[2] = Antifungal activity against Trichophyton mentagrophytes.; format: functional, Arthroderma benhamiae; conditions: Trichophyton benhamiae
Candida parapsilosis [3] = assay: Antifungal activity was measured against Candida parapsilosis.; conditions: Lodderomyces parapsilosis
Cavia porcellus [4] = assay: In vivo antifungal activity by topical treatment of guinea pig dermatophytosis caused by Trichophyton mentagrophytes at a dose of 0.1%; format: functional
Cavia porcellus [5] = assay: In vivo antifungal activity by topical treatment of guinea pig dermatophytosis caused by Trichophyton mentagrophytes at a dose of 0.5%; format: functional
Cavia porcellus [6] = assay: In vivo antifungal activity by topical treatment of guinea pig dermatophytosis caused by Trichophyton mentagrophytes at a dose of 2%; format: functional
Trichophyton benhamiae = assay: Antifungal activity measured against Trichophyton mentagrophytes; format: functional, Arthroderma benhamiae
Trichophyton quinckeanum = assay: Antifungal activity was measured against Trichophyton mentagrophytes.; format: functional, ptrichophyton mentagrophytes

Compound | MIC (Aspergillus fumigatus) [µg/mL] | MIC (Candida parapsilosis [1]) [µg/mL] | MIC (Epidermophyton floccosum) [µg/mL] | MIC (Microsporum canis) [µg/mL] | MIC (Sporothrix schenckii) [µg/mL] | MIC [2] [µg/mL] | MIC (Candida parapsilosis [3]) [µg/mL] | MIC (Trichophyton benhamiae) [µg/mL] | MIC (Trichophyton quinckeanum) [µg/mL] | Activity (Cavia porcellus [4]) [%] | Activity (Cavia porcellus [5]) [%] | Activity (Cavia porcellus [6]) [%]
CN(C/C=C/c1ccccc1)Cc1ccc2c(c1)C1CCC2C1 (stereo not given) | > 100 | > 100 | 12.5 (≈ 41.2 µM) | 50 (≈ 165 µM) | 100 (≈ 330 µM) | 6.2 (≈ 20.4 µM) |  |  |  |  |  | 
C(=C\c1ccccc1)/COCc1cccc2ccccc12 | > 100 | > 100 | > 100 | > 100 | > 100 | 3.1 (≈ 11.3 µM) |  |  |  |  |  | 
CN(C/C=C/CCc1ccccc1)Cc1cccc2ccccc12 | > 100 | > 100 | 12.5 (≈ 39.6 µM) | 12.5 (≈ 39.6 µM) | > 100 | 1.6 (≈ 5.07 µM) |  |  |  |  |  | 
CN(C/C=C/Cc1ccccc1)Cc1cccc2ccccc12 | > 100 | > 100 | 50 (≈ 166 µM) | 50 (≈ 166 µM) | > 100 | 50 (≈ 166 µM) |  |  |  |  |  | 
CN(C/C=C/c1ccccc1)Cc1ccc(Cl)c2ccccc12 | > 100 | 1.6 (≈ 4.97 µM) | 0.1 (≈ 0.311 µM) | 0.1 (≈ 0.311 µM) | 3.1 (≈ 9.63 µM) | 0.05 (≈ 0.155 µM) |  |  |  | 18 | 44 | 88
COc1ccc2c(CN(C)C/C=C/c3ccccc3)cccc2c1 | > 100 | > 100 | 12.5 (≈ 39.4 µM) | 12.5 (≈ 39.4 µM) | 25 (≈ 78.8 µM) | 1.6 (≈ 5.04 µM) |  |  |  |  |  | 
CN(C/C=C/c1cccc2ccccc12)Cc1ccccc1 | > 100 | > 100 | 100 (≈ 348 µM) | 100 (≈ 348 µM) | 100 (≈ 348 µM) | 100 (≈ 348 µM) |  |  |  |  |  | 
CN(C/C=C/c1ccccc1)Cc1ccccc1 | > 100 | > 100 | > 100 | > 100 | > 100 | > 100 |  |  |  |  |  | 
Cc1ccc(CN(C)C/C=C/c2ccccc2)c2ccccc12 | > 100 | 12.5 (≈ 41.5 µM) | 0.2 (≈ 0.663 µM) | 0.4 (≈ 1.33 µM) | 3.1 (≈ 10.3 µM) | 0.1 (≈ 0.332 µM) |  |  |  |  |  | 
CN(CCCc1ccccc1)Cc1cccc2ccccc12 | > 100 | > 100 | > 100 | > 100 | > 100 | 12.5 (≈ 43.2 µM) |  |  |  |  |  | 
CN(C/C=C/c1ccccc1)C1CCCc2ccccc21 (stereo not given) | > 100 | > 100 | 50 (≈ 180 µM) | 50 (≈ 180 µM) | 100 (≈ 360 µM) | 12.5 (≈ 45.1 µM) |  |  |  |  |  | 

Second part, led by results:

MIC (Aspergillus fumigatus) [µg/mL] | MIC (Candida parapsilosis [1]) [µg/mL] | MIC (Epidermophyton floccosum) [µg/mL] | MIC (Microsporum canis) [µg/mL] | MIC (Sporothrix schenckii) [µg/mL] | MIC [2] [µg/mL] | MIC (Candida parapsilosis [3]) [µg/mL] | MIC (Trichophyton benhamiae) [µg/mL] | MIC (Trichophyton quinckeanum) [µg/mL] | Compound | Activity (Cavia porcellus [4]) [%] | Activity (Cavia porcellus [5]) [%] | Activity (Cavia porcellus [6]) [%]
12.5 (≈ 43.5 µM) |  | 0.1 (≈ 0.348 µM) | 0.1 (≈ 0.348 µM) | 1.6 (≈ 5.57 µM) | 0.05 (≈ 0.174 µM) | 1.6 (≈ 5.57 µM) |  |  | CN(C/C=C/c1ccccc1)Cc1cccc2ccccc12 [NAFTIFINE] | 35 | 88 | 100
100 (≈ 332 µM) | 50 (≈ 166 µM) | 25 (≈ 82.9 µM) | 50 (≈ 166 µM) | 25 (≈ 82.9 µM) | 12.5 (≈ 41.5 µM) |  |  |  | CN(C/C=C/c1ccccc1)CCc1cccc2ccccc12 |  |  | 
100 (≈ 332 µM) | > 100 | 6.2 (≈ 20.6 µM) | 3.1 (≈ 10.3 µM) | 100 (≈ 332 µM) | 3.1 (≈ 10.3 µM) |  |  |  | CN(CC/C=C/c1ccccc1)Cc1cccc2ccccc12 |  |  | 
25 (≈ 81.8 µM) | 1.6 (≈ 5.24 µM) | 0.1 (≈ 0.327 µM) | 0.05 (≈ 0.164 µM) | 0.8 (≈ 2.62 µM) |  |  | 0.05 (≈ 0.164 µM) |  | CN(C/C=C/C1=CCCCCC1)Cc1cccc2ccccc12 | 29 | 85 | 100
25 (≈ 81.9 µM) | 3.1 (≈ 10.2 µM) | 0.1 (≈ 0.327 µM) | 0.2 (≈ 0.655 µM) | 1.6 (≈ 5.24 µM) |  |  | 0.1 (≈ 0.327 µM) |  | CN(C/C=C/c1ccc(F)cc1)Cc1cccc2ccccc12 | 21 | 82 | 100
50 (≈ 170 µM) | 6.2 (≈ 21.1 µM) | 0.1 (≈ 0.341 µM) | 0.2 (≈ 0.682 µM) | 3.1 (≈ 10.6 µM) |  |  | 0.1 (≈ 0.341 µM) |  | CN(C/C=C/c1ccsc1)Cc1cccc2ccccc12 | 7 | 47 | 100
100 (≈ 327 µM) | 12.5 (≈ 40.9 µM) | ≤ 1.6 | ≤ 1.6 | 6.25 (≈ 20.5 µM) |  |  |  | ≤ 1.6 | CN(C/C=C/c1ccccc1F)Cc1cccc2ccccc12 | 0 | 59 | 94
25 (≈ 87 µM) | 3.1 (≈ 10.8 µM) | 0.2 (≈ 0.696 µM) | 0.2 (≈ 0.696 µM) | 3.1 (≈ 10.8 µM) |  |  | 0.1 (≈ 0.348 µM) |  | CN(C/C=C\c1ccccc1)Cc1cccc2ccccc12 | 34 | 47 | 100
